Measurements as given in PubChem BioAssay AID1645848.
Converted amounts (≈) assume the structure as drawn.

Settings: buffer; pH 7.4; 6.0 h; 150.0 µM
`Cc1cccc(-c2csc(N3CCC(C(N)=O)CC3)n2)c1` showed a solubility kinetic greater than 45 µg/mL. Work on `CCc1ccc(-n2nnc(-c3nsc(NC(=O)c4ccccc4Cl)n3)c2C)cc1` yielded a solubility kinetic of less than 1 µg/mL. `CS(=O)(=O)N1CCN(c2nc(-c3ccc(Br)cc3)cs2)CC1` showed a solubility kinetic of less than 1 µg/mL. Work on `O=S(=O)(Nc1ccc2ccccc2c1)c1ccc(NCc2ccc(Br)cc2O)cc1` yielded a solubility kinetic of less than 1 µg/mL. Molecule `Oc1c(CN2CCN(c3ccccn3)CC2)cc(Cl)c2cccnc12` has a solubility kinetic of 11.4 µg/mL (≈ 32.1 µM). Molecule `COc1ccc2[nH]c(C[C@@H]3C[C@@H](C(C)C)[C@H](CNCc4ccccc4O)C=C3C)nc2n1` has a solubility kinetic of 42.1 µg/mL (≈ 96.9 µM). `COc1cc(NS(=O)(=O)c2ccc(C)cc2)cc(C(=O)Nc2nc(-c3ccccc3)cs2)c1` gave a solubility kinetic of less than 1 µg/mL. `CCN1C(=O)c2ccccc2[S@](=O)c2ccc(C(=O)N[C@H](C)c3ccc4ccccc4c3)cc21` gave a solubility kinetic of less than 1 µg/mL. Work on `Cc1ccnc(NC(=S)N2CCN(c3cc(C(F)(F)F)cc(C(F)(F)F)c3)CC2)c1` yielded a solubility kinetic of 6.7 µg/mL (≈ 14.9 µM). For `COc1ccccc1CNC(=O)CCCn1nc(C)c2c(C)n(-c3ccc(C)cc3)nc2c1=O`, the solubility kinetic was 2.29 µg/mL (≈ 4.98 µM). `CN1CCN(c2ccc(Nc3c4ccccc4nc4ccccc34)cc2)CC1` showed a solubility kinetic greater than 54 µg/mL. `Cc1ccc(-c2cc(C(=O)Nc3ccc(-n4cccn4)cc3)c3ccccc3n2)cc1C` gave a solubility kinetic of less than 1 µg/mL. `COc1ccc(Nc2ncnc3c2cnn3-c2ccc(C)cc2)cc1Cl` showed a solubility kinetic of 0.075 µg/mL (≈ 0.205 µM). With `O=C(Nc1ncc(Cc2ccc(C(F)(F)F)cc2)s1)c1cn(-c2ccccc2)cn1` the solubility kinetic was less than 1 µg/mL. `O=C(c1cccc(F)c1)N1CCC2(CCN(Cc3cc(C(F)(F)F)cc(C(F)(F)F)c3)CC2)CC1` gave a solubility kinetic of 3.62 µg/mL (≈ 7.2 µM). Molecule `O=C(c1nc(-c2cccnc2)c2ccccn12)N1CCN(c2ncccn2)CC1` has a solubility kinetic of 9.57 µg/mL (≈ 24.8 µM). `O=C1NCc2cc(-c3cc4c(ccn4Cc4ccncc4)c(N4CCOCC4)n3)ccc21` gave a solubility kinetic greater than 94 µg/mL. With `Cc1[nH]c2ccccc2c1CN1CCN(c2ccccn2)CC1` the solubility kinetic was 34.4 µg/mL (≈ 112 µM). Molecule `N=c1c2ccccc2nnn1-c1ccc(C(F)(F)F)cc1` has a solubility kinetic of less than 1 µg/mL. In the case of `Cc1cnc(NC(=O)c2ccc(-c3cccc([N+](=O)[O-])c3)o2)s1`, the solubility kinetic is reported as less than 1 µg/mL. `CCc1ccc(NC(=O)c2[nH]c(C)c(C(C)=O)c2C)cc1[S+](=O)([O-])Nc1ccccc1C#N` showed a solubility kinetic of 40.3 µg/mL (≈ 86.8 µM). Molecule `O=C(Nc1ccc(-c2ccccc2)cc1)[C@H](Cc1ccc(O[S+](=O)([O-])c2cccc3cnccc23)cc1)N[S+](=O)([O-])c1cccc2cnccc12` has a solubility kinetic of less than 1 µg/mL. Molecule `CC(C)(C)C(=O)C(Oc1ccc(Cl)cc1)n1ccnc1` (stereo not given) has a solubility kinetic of 29 µg/mL (≈ 99.1 µM). In the case of `Br.CC(Cc1ccc(O)cc1)NCC(O)c1cc(O)cc(O)c1` (stereo not given), the solubility kinetic is reported as greater than 45 µg/mL. `Cc1ccnc(NC(=S)N2CCN(c3cccc(C(F)(F)F)n3)CC2)c1` showed a solubility kinetic of 3.88 µg/mL (≈ 10.2 µM). For `O=C(Nc1ccc([S+](=O)([O-])Nc2nccs2)cc1)c1ccn[nH]1`, the solubility kinetic was greater than 52 µg/mL. With `NC(=O)C1CCN(c2nnc(-c3ccc(Br)cc3)s2)CC1` the solubility kinetic was 8.24 µg/mL (≈ 22.4 µM). Molecule `Cc1cccc(CNc2ccc(S(=O)(=O)Nc3nccs3)cc2)c1O` has a solubility kinetic greater than 55 µg/mL. Molecule `CN(C)[C@@H]1CCN(c2cccc(Nc3nn4c(=O)c5ccccc5nc4s3)c2)C1` has a solubility kinetic of 18.1 µg/mL (≈ 44.4 µM). For `CCOc1ccc(CCNC(=O)c2cc3ccccc3o2)cc1OCC`, the solubility kinetic was 8.88 µg/mL (≈ 25.1 µM). In the case of `Fc1ccc(-c2ccc(Nc3nc(-c4ccncc4)nc4ccccc34)cc2F)c(Cl)c1`, the solubility kinetic is reported as less than 1 µg/mL. With `NC(=O)C1CCN(c2ncc(-c3ccc4c(c3)OCO4)s2)CC1` the solubility kinetic was 5.31 µg/mL (≈ 16 µM). `CCOC(=O)c1cc(-c2ccco2)nc2c1c(C)nn2CCC#N` gave a solubility kinetic of 9.9 µg/mL (≈ 30.5 µM). With `COc1ccccc1C(=O)Nc1ccccc1C(=O)Nc1cccc(C(F)(F)F)c1` the solubility kinetic was less than 1 µg/mL. `CCOC(=O)c1ccnc2cc(C(OCCN3CCCCC3)c3ccccc3Cl)sc12` (stereo not given) showed a solubility kinetic of 56.3 µg/mL (≈ 123 µM). Work on `Cc1cnc(-c2ccccc2C(C)C)nc1NCC1CN(c2cccnc2)C1` yielded a solubility kinetic of 36.3 µg/mL (≈ 97.2 µM). `CNc1oc(-c2cccc3ccccc23)nc1C(=O)OC` showed a solubility kinetic of less than 1 µg/mL. Molecule `COc1ccc(OC)c(Nc2c3c(nc4ccccc24)CCC3)c1` has a solubility kinetic greater than 47 µg/mL. Molecule `COc1ccc(-n2nc(C3CCN(C(=O)Cc4ccc(F)cc4)CC3)[nH]c2=O)cc1` has a solubility kinetic greater than 61 µg/mL. Molecule `CSc1ncc(Cl)c(C(=O)Nc2c(C)cccc2C)n1` has a solubility kinetic of 1.91 µg/mL (≈ 6.19 µM). `COc1ccc(-c2ccc3nc(-c4ccc(SC)cc4)oc3c2)c(OC)c1OC` gave a solubility kinetic of less than 1 µg/mL. `CCCCC(C)/C=C(C)/C=C(\C)C(=O)NC1=CC(O)(/C=C/C=C/C=C/C(=O)NC2=C(O)CCC2=O)C2OC2C1=O` (stereo not given) gave a solubility kinetic greater than 81 µg/mL. `O=C(Nc1ncc(Cc2ccc(C(F)(F)F)cc2)s1)c1cccc(-c2ccccc2)c1` gave a solubility kinetic of less than 1 µg/mL. `O=[S+]([O-])(Nc1ccc(C2CCNCC2)cc1)c1ccc(NCc2ccc(Cl)cc2O)cc1` gave a solubility kinetic of 23.9 µg/mL (≈ 50.6 µM). For `Fc1ccccc1-c1nc(NCc2ccc(-c3cccnc3)cc2)c2ccccc2n1`, the solubility kinetic was less than 1 µg/mL. Work on `Cc1ccc(-c2cc(C(=O)Nc3ccc(-c4noc(=O)[nH]4)cc3)c3ccccc3n2)cc1C` yielded a solubility kinetic of 1.39 µg/mL (≈ 3.19 µM). Molecule `Cc1ccc(S(=O)(=O)Nc2cnccc2C(=O)Nc2nc(-c3ccco3)cs2)cc1` has a solubility kinetic greater than 65 µg/mL. Work on `CCOC(=O)NNc1ccc(N(CC)CC(C)O)nn1` (stereo not given) yielded a solubility kinetic of 4.72 µg/mL (≈ 16.7 µM). Molecule `O=S(=O)(Nc1nccs1)c1ccc(NCc2cccc3cc[nH]c23)cc1` has a solubility kinetic of 20.5 µg/mL (≈ 53.2 µM). Work on `Cc1ccc(C(=O)Nc2nc3nc(-c4ccccc4)cc(=O)n3[nH]2)cc1` yielded a solubility kinetic of 2.64 µg/mL (≈ 7.65 µM). `O=C(Nc1nnc(-c2ccc(Cl)cc2)o1)c1ccc(Cl)c(Cl)c1` showed a solubility kinetic of less than 1 µg/mL. Work on `CC(=O)c1c(C)[nH]c(C(=O)Nc2cccc(S(=O)(=O)N3CCCCCC3)c2)c1C` yielded a solubility kinetic of 2.11 µg/mL (≈ 5.05 µM). In the case of `Cc1cccc(NCc2ccc(O)c3ncccc23)c1`, the solubility kinetic is reported as less than 1 µg/mL. Work on `O=C(O)CCNc1cc(N2CCc3ccccc3CC2)nc(-c2cccnc2)n1` yielded a solubility kinetic greater than 58 µg/mL. `O=C(Nc1ccc(Cl)c(S(=O)(=O)N2CCOCC2)c1)c1ccc(S(=O)(=O)N2CCCCC2)cc1` showed a solubility kinetic of less than 1 µg/mL. For `O=[S+]([O-])(Nc1cccc2ccccc12)c1ccc(NCc2ccc(Cl)cc2O)cc1`, the solubility kinetic was less than 1 µg/mL. `CC(C)(C)c1ccc(OCc2nn3c(-c4ccncc4)nnc3s2)cc1` showed a solubility kinetic of less than 1 µg/mL. Work on `COc1cc(Cl)c(C)cc1NC(=O)CSc1ncc(S(=O)(=O)c2ccc(C(C)(C)C)cc2)c(=O)[nH]1` yielded a solubility kinetic of less than 1 µg/mL. In the case of `Nc1cccc(CNc2ccc(S(=O)(=O)Nc3nccs3)cc2)c1O`, the solubility kinetic is reported as 47.2 µg/mL (≈ 125 µM). For `COc1cc(-c2cc3c(nc2-c2ccccc2)nc(C(=O)NC2CCN(C)CC2)n3C)ccn1`, the solubility kinetic was greater than 67 µg/mL. `Cn1cc(Br)c(C2N=C(Nc3nc4ccccc4o3)NC3=C2C(=O)CCC3)n1` (stereo not given) showed a solubility kinetic of 24.7 µg/mL (≈ 56.1 µM). Work on `CCCc1oc2ccc(NS(=O)(=O)c3ccc(OC)cc3)cc2c1C(=O)OCC` yielded a solubility kinetic of less than 1 µg/mL. `Cc1cc(-c2nnc3n2CCCCC3)c(C)n1-c1ccc(C(C)(C)C)cc1` gave a solubility kinetic of 20.9 µg/mL (≈ 57.6 µM). `COc1ccc(-n2c(C)c(C(C)=O)c3cc(OC(=O)COc4ccccc4)ccc32)cc1` gave a solubility kinetic of less than 1 µg/mL. With `Cn1nnnc1Sc1ncnc2scc(Br)c12` the solubility kinetic was 1.27 µg/mL (≈ 3.85 µM). With `CCNC(=O)N1CCCN(c2ccc(C(=O)NCCc3ccc(Cl)cc3Cl)cc2NC(=O)c2cccc(Cl)c2)CC1` the solubility kinetic was less than 1 µg/mL. `Cc1sc(NC(=O)Cc2ccc3c(c2)OCO3)nc1-c1ccc2c(c1)CCN2C(=O)c1ccccc1C(F)(F)F` showed a solubility kinetic of less than 1 µg/mL. Work on `O=C(Nc1ncc(Cc2ccc(C(F)(F)F)cc2)s1)c1ccc(-c2ccccc2)o1` yielded a solubility kinetic of less than 1 µg/mL. For `CCN(CCO)CCCOc1ccc2c(Nc3cc(CC(=O)Nc4cccc(F)c4)[nH]n3)ncnc2c1`, the solubility kinetic was greater than 75 µg/mL. For `C#CCNC(=O)c1nc(-c2ccc([S+](C)(=O)[O-])cc2)c2cnccn12`, the solubility kinetic was less than 1 µg/mL.
